Earlier results on one compound are cited in patent publication US10166194B2, “Hydrocortisone controlled release formulation” (Diurnal Limited, priority 2012, dated 2019).

Structures are written as SMILES.

As for `C[C@]12CCC(=O)C=C1CC[C@@H]1[C@@H]2[C@@H](O)C[C@@]2(C)[C@H]1CC[C@]2(O)C(=O)CO` [Hydrocortisone], the half-life entry is listed as “ca. 3 hours”.
